What all share (assay): cAMP accumulation
What all share (assay type): cell-based
Holding throughout (settings): mean ± S.E.M.; for Emax: cAMP maximal response, SEM; for EC50: cAMP, CV1-FlpIn cells, 30 min, IBMX
Background: cAMP levels reflect the balance of adenylyl cyclase and phosphodiesterase activity.

The target in assay [1] is T1, hCTR N288A (Homo sapiens, UniProt P30988, N288A).
T1 construct: expressed in transfected cells
T1 sequence (P30988 25-474 N288A): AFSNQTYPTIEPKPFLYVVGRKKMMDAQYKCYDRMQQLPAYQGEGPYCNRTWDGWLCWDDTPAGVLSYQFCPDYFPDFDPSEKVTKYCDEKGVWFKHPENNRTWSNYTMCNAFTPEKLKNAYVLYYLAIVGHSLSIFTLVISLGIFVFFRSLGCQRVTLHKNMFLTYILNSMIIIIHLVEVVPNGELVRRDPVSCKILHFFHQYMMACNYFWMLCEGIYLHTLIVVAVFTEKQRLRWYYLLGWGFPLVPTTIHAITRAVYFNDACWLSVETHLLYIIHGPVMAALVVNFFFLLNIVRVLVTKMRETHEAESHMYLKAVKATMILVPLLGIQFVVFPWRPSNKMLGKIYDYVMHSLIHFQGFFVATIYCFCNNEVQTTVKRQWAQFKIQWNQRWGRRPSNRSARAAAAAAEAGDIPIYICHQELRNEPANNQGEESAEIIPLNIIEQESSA
In short, it runs like this: (§1)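 Plated cells were incubated overnight and then challenged with rising ligand concentrations for 30 min alongside IBMX. Medium was replaced by absolute ethanol, which was evaporated at room temperature before cAMP determination. Values are normalized to 100 μM forskolin.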

For assay [2], the target named is T2, hCTR V293A (Homo sapiens, UniProt P30988, V293A).
T2 construct: c-Myc (N); expressed in transfected cells
T2 sequence (P30988 25-474 V293A): T1 sequence (P30988 25-474 N288A) with A264N, V269A
An outline of the steps: as §1

Assay [3] deals with T3, hCTR N365A (Homo sapiens, UniProt P30988, N365A).
T3 construct: c-Myc (N); expressed in transfected cells
T3 sequence (P30988 25-474 N365A): T1 sequence (P30988 25-474 N288A) with A264N, N341A
An outline of the steps:
as §1

The target of assay [4] is T4, hCTR F285A (Homo sapiens, UniProt P30988, F285A).
T4 construct: expressed in transfected cells
T4 sequence (P30988 25-474 F285A): T1 sequence (P30988 25-474 N288A) with F261A, A264N
An outline of the steps:
as §1

The target in assay [5] is T5, hCTR H296A (Homo sapiens, UniProt P30988, H296A).
T5 construct: c-Myc (N); expressed in transfected cells
T5 sequence (P30988 25-474 H296A): T1 sequence (P30988 25-474 N288A) with A264N, H272A
An outline of the steps:
as §1

Residue numbers refer to the chain shown, from its start. Where a SMILES comes first, the peptide text is derived from it. Bridges are numbered along the chain shown (N, C = ends).

The term Emax denotes the greatest response seen or fitted, relative to the assay's reference. For `CC[C@H](C)[C@H](NC(=O)[C@H](C)NC(=O)[C@@H](NC(=O)[C@H](CCC(N)=O)NC(=O)[C@@H]1CCCN1C(=O)[C@H](Cc1ccccc1)NC(=O)[C@@H](NC(=O)[C@H](Cc1c[nH]cn1)NC(=O)[C@H](Cc1ccccc1)NC(=O)[C@H](CCCCN)NC(=O)[C@H](CC(N)=O)NC(=O)[C@H](Cc1ccccc1)NC(=O)[C@H](CC(=O)O)NC(=O)[C@H](CCC(N)=O)NC(=O)[C@@H](NC(=O)[C@H](Cc1ccc(O)cc1)NC(=O)[C@@H](NC(=O)CNC(=O)[C@H](CC(C)C)NC(=O)[C@H](CCSC)NC(=O)[C@@H]1CSSC[C@H](N)C(=O)NCC(=O)N[C@@H](CC(N)=O)C(=O)N[C@@H](CC(C)C)C(=O)N[C@@H](CO)C(=O)N[C@@H]([C@@H](C)O)C(=O)N1)[C@@H](C)O)[C@@H](C)O)[C@@H](C)O)[C@@H](C)O)C(=O)NCC(=O)N[C@H](C(=O)NCC(=O)N[C@@H](C)C(=O)N1CCC[C@H]1C(N)=O)C(C)C` [hCT], the Emax turned out to be 117 ± 10% in assay [1]; 123 ± 8% in assay [2]; 96 ± 4% in assay [3]; 105 ± 11% in assay [4]; 87 ± 4% in assay [5].
As a reminder, the EC50 is the concentration at which the effect is half-maximal. As for `CC(C)C[C@H](NC(=O)CNC(=O)[C@H](C)NC(=O)[C@H](CC(C)C)NC(=O)[C@H](CCCNC(=N)N)NC(=O)[C@H](Cc1cnc[nH]1)NC(=O)[C@@H](NC(=O)[C@@H](NC(=O)[C@@H]1CSSC[C@H](NC(=O)[C@H](C)N)C(=O)N[C@@H](CC(=O)O)C(=O)N[C@@H]([C@@H](C)O)C(=O)N[C@@H](C)C(=O)N[C@@H]([C@@H](C)O)C(=O)N1)C(C)C)[C@@H](C)O)C(=O)N[C@@H](CC(C)C)C(=O)N[C@@H](CO)C(=O)N[C@@H](CCCNC(=N)N)C(=O)N[C@@H](CO)C(=O)NCC(=O)NCC(=O)N[C@H](C(=O)N[C@H](C(=O)N[C@@H](CCCCN)C(=O)N[C@@H](CC(N)=O)C(=O)N[C@@H](CC(N)=O)C(=O)N[C@@H](Cc1ccccc1)C(=O)N[C@H](C(=O)N1CCC[C@H]1C(=O)N[C@H](C(=O)N[C@@H](CC(N)=O)C(=O)N[C@H](C(=O)NCC(=O)N[C@@H](CO)C(=O)N[C@@H](CCCCN)C(=O)N[C@@H](C)C(=O)N[C@@H](Cc1ccccc1)C(N)=O)C(C)C)[C@@H](C)O)C(C)C)C(C)C)C(C)C` [hαCGRP], the Emax stood at 118 ± 17% in assay [1]; 153 ± 17% in assay [2]; 111 ± 13% in assay [3]; 122 ± 18% in assay [4]; 106 ± 18% in assay [5]. Moreover, the EC50 was 10.2 nM in assay [1]; 8.71 nM in assay [2]; 15.5 nM in assay [3]; 15.8 nM in assay [4]; 14.1 nM in assay [5].
For `CSCC[C@H](NC(=O)CNC(=O)[C@H](CO)NC(=O)[C@H](Cc1ccccc1)NC(=O)[C@H](CCCNC(=N)N)NC(=O)[C@H](Cc1c[nH]cn1)NC(=O)[C@H](Cc1ccccc1)NC(=O)[C@H](CC(N)=O)NC(=O)[C@H](CC(N)=O)NC(=O)[C@H](CC(C)C)NC(=O)[C@H](CC(N)=O)NC(=O)[C@H](CCCNC(=N)N)NC(=O)[C@H](Cc1c[nH]c2ccccc12)NC(=O)[C@H](Cc1ccc(O)cc1)NC(=O)[C@H](C)NC(=O)[C@H](CO)NC(=O)[C@H](CC(C)C)NC(=O)[C@@H](NC(=O)[C@@H]1CSSC[C@H](N)C(=O)N[C@@H](CO)C(=O)N[C@@H](CC(N)=O)C(=O)N[C@@H](CC(C)C)C(=O)N[C@@H](CO)C(=O)N[C@@H]([C@@H](C)O)C(=O)N1)C(C)C)C(=O)NCC(=O)N[C@@H](Cc1ccccc1)C(=O)NCC(=O)N1CCC[C@H]1C(=O)N[C@@H](CCC(=O)O)C(=O)N[C@H](C(=O)N1CCC[C@H]1C(N)=O)[C@@H](C)O` [pCT] (H-CSNLSTCVLSAYWRNLNNFHRFSGMGFGPETP-NH2; disulfide 1-7), the Emax amounted to 105 ± 10% in assay [1]; 107 ± 5% in assay [2]; 95 ± 5% in assay [3]; 81 ± 10% in assay [4]; 96 ± 8% in assay [5]. Also, the EC50 in assay [1] is 0.0631 nM; in assay [2] it was 0.0501 nM; in assay [3], 0.0316 nM; in assay [4], 0.0501 nM; in assay [5], 0.0316 nM.
As to `CC(C)C[C@H](NC(=O)[C@H](CC(N)=O)NC(=O)[C@H](CC(N)=O)NC(=O)[C@H](CO)NC(=O)[C@H](CO)NC(=O)[C@H](CCCNC(=N)N)NC(=O)[C@@H](NC(=O)[C@H](CC(C)C)NC(=O)[C@H](Cc1ccccc1)NC(=O)[C@H](CC(N)=O)NC(=O)[C@H](C)NC(=O)[C@H](CC(C)C)NC(=O)[C@H](CCCNC(=N)N)NC(=O)[C@H](CCC(N)=O)NC(=O)[C@@H](NC(=O)[C@H](C)NC(=O)[C@@H]1CSSC[C@H](NC(=O)[C@@H](N)CCCCN)C(=O)N[C@@H](CC(N)=O)C(=O)N[C@@H]([C@@H](C)O)C(=O)N[C@@H](C)C(=O)N[C@@H]([C@@H](C)O)C(=O)N1)[C@@H](C)O)C(C)C)C(=O)NCC(=O)N1CCC[C@H]1C(=O)N[C@H](C(=O)N[C@@H](CC(C)C)C(=O)N1CCC[C@H]1C(=O)N1CCC[C@H]1C(=O)N[C@H](C(=O)N[C@@H](CC(N)=O)C(=O)N[C@H](C(=O)NCC(=O)N[C@@H](CO)C(=O)N[C@@H](CC(N)=O)C(=O)N[C@H](C(=O)N[C@@H](Cc1ccc(O)cc1)C(N)=O)[C@@H](C)O)C(C)C)[C@@H](C)O)C(C)C` [rAmy], the Emax turned out to be 64 ± 8% in assay [1]; 91 ± 10% in assay [2]; 72 ± 8% in assay [3]; 92 ± 9% in assay [4]; 107 ± 18% in assay [5].

Source of the values: paper PMC5908784, “Extracellular loops 2 and 3 of the calcitonin receptor selectively modify agonist binding and efficacy” (Biochemical Pharmacology, 2018).
